Reference: patent US20040023299A1, “Diagnosis of liver disease” (priority 2000, published 2004)
Where two headings read alike, the source gives them in different places.

Settings: rats
Experimental: Chronic liver disease was established by exposing the animals of the 3 experimental groups to weekly intra-gastric administration of CCl4. A starting dose of 80 μl was used and increased weekly, based on the weight of the animals. Nothing was administered to the control group. All the animals were weighed on day one and the experimental groups started with their 80 μl CCl4. After three days the animals were again weighed to determine the dose for the second week. That was the procedure for the administration of the CC4 l during the entire experiment. On day three of week five, the scanning of group 1 started. Anaesthesia in each case was induced with an intraperitoneal injection of sodium pentobarbitone 6% solution (Sagatal, Kryon Laboratories Pty Ltd., Benrose, Gauteng, S. A). […] After the completion of the acquisition, the rats were terminated by an intravenous overdose of sodium pentobarbitone. The livers were taken out, stored in a 10% formalin solution until the next day and then processed and stained with Haematoxylin and Eosin, Reticulin and Cyrus red.
Liver sections of the rats were stained with H&E, Masson Trichrome and Reticulin stains. The amount of necrosis and fibrosis were interpreted by an experienced hepatopathologist and scored according to a classification system whereby 1 was mild necrosis or fibrosis and 4 severe.

[1] = weekly intra-gastric CCl4, after 5 weeks
[2] = weekly intra-gastric CCl4, after 7 weeks
[3] = weekly intra-gastric CCl4, after 9 weeks

Question: Which “average score for fibrosis (1 mild, 4 severe)” value (from here on “average score for fibrosis”) [1] does the source give for `ClC(Cl)(Cl)Cl` [CCl4] here?
Answer: 1.9

Question: And the “average score for necrosis (1 mild, 4 severe)” value (“average score for necrosis” for short) [1]?
Answer: 1.9

Question: What about the “average score for fibrosis” value [2] of the same compound?
Answer: 1.9

Question: And the “average score for necrosis” value [2]?
Answer: 1.7

Question: And the “average score for fibrosis” value [3]?
Answer: 2.1

Question: And the “average score for necrosis” value [3]?
Answer: 1.4
